In brackets after ≈: the same amount, converted by molar mass.
Columns and labels:
[1] = solid amlodipine free base; Int. J. of Pharmaceutics 133, 71-83 (1996); cited from earlier work
[2] = Stickiness comparison (average punch residue of tablets); assay type: physicochemical; conditions: tablets with microcrystalline cellulose and calcium sulphate dihydrate, 20 mm punch, 400 mg tablet, slope over runs of 50-300 tablets
Procedure: An amlodpine free base tablet according to the present invention is preferably a low punch residue tablet. A “low punch residue” as used herein means that the average amount of amlodipine left on a tablet punch is not more than 1 μg/cm^2 per tablet based on a 20 mm round flat punch with a compression force of 15 kilo-newtons. Preferably, the tablet has an average punch residue of 0.7 μg/cm^2 per tablet, more preferably 0.6 μg/cm^2 per tablet. The amount of amlodipine residue can be measured by the process described in EP 244 944. In general the method involves washing the punch after runs of 50, 100, 150, 200, 250 and 300 tablets, using methanol and an ultrasonic bath. The amount of amlodipine in the samples is measured by uv and the total amount of amlodipine extracted from both the upper and lower punch is plotted against the amount of tablets made. An average value for amlodipine residue (stickiness) is calculated from the slope of the regression line by forcing the y-intercept of the line through zero.
After 50 tablets, the tablet material was extracted from the punches using methanol and an ultrasonic bath. […] The extracts together with Amlodipine calibration samples were measured spectrometrically. […] An average value for stickiness was calculated from the slope of the regression line by forcing the y-intercept of the line through zero.

[3] = Solid-state stability of crystalline Form II on standing; assay type: physicochemical; conditions: after 1 month standing at 60° C.
Procedure: The amlodipine free base can be of any form including crystalline form I, crystalline form II or amorphous. […] This form corresponds to the material described by […] and Deasy. […] Although it is possible to convert Form II into Form I by applying sufficiently high temperatures, generally over 100 C., Form II is generally stable at ambient conditions and even at moderately elevated temperatures. For instance, the Form II is stable after 1 month standing at 60° C. Accordingly, Form II is thus useful in manufacturing of pharmaceutical final forms. The amlodipine free base in the tablet of the present invention can be of a single type or can be a mixture. For example, a mixture of crystalline Forms I and II.

In the case of `CCOC(=O)C1=C(COCCN)NC(C)=C(C(=O)OC)C1c1ccccc1Cl` (stereo not shown) [amlodipine free base, 2-[(2-aminoethoxy)methyl]-4-(2-chlorophenyl)-3-ethoxycarbonyl-5-methoxycarbonyl-6-methyl-1,4-dihydropyridine], the aqueous solubility [1] is given as 0.0774 mg/mL (≈ 189 µM) and the “Average residue (stickiness)” value ([2]; listed as Amlodipine base) is given as 0.55 μg ADP.cm^−2.tablet^−1.
With `CCOC(=O)C1=C(COCCN)NC(C)=C(C(=O)OC)C1c1ccccc1Cl` (stereo not shown) [amlodipine besylate] the “Average residue (stickiness)” value [2] was 1.16 μg ADP.cm^−2.tablet^−1.
With `CCOC(=O)C1=C(COCCN)NC(C)=C(C(=O)OC)C1c1ccccc1Cl` (stereo not shown) [Form II] the “stability of crystalline form” value [3] was “stable”.

From patent US7335380B2 (Synthon IP Inc., priority 2000, dated 2008)
